The data set in a line: Pharmacokinetic assay in Balb/c mice (plasma and brain tissue). The format is in vivo. The conditions noted are these: mouse, po, 5 mg/kg p.o., male Balb/c mice; for AUC(0-t): read-out: Area under curve AUC0-t; for AUC(0-inf): read-out: Area under curve AUC0-∞; for half-life: read-out: Half-life t1/2 (converted); for MRT: read-out: Mean residence time MRT; for Tmax: read-out: Peak time tmax; for Cmax: read-out: Plasma concentration Cmax. As to the method:
Balb/c mice were used as test animals. The pharmacokinetic behavior in mice (plasma and brain tissue) of the compounds of Examples 2, 3, 5, 6, 9, 13, 59, 60, 61, 63, 71-74, 81, 103, 130, 134, 135, 137, 138, 140, 141, 143, 145 and 146 orally administered at a dose of 5 mg/kg was studied.
Each group had 24 male Balb/c mice. After an overnight fast, Balb/c mice were administered p.o. with the test compound at an administration dose of 5 mg/kg and an administration volume of 10 mL/kg.
0.2 ml of blood was taken from the heart before administration and at 0, 0.5, 1, 2, 4, 6, 8 and 24 hours after administration. The samples were stored in EDTA-K2 tubes, and centrifuged for 6 minutes at 4° C., 6000 rpm to separate the plasma. The plasma samples were stored at −80° C. The mice were sacrificed with CO2, and the whole brain tissue was taken out, weighed, placed in a 2 mL centrifuge tube and stored at −80° C.
1) 160 μL of acetonitrile was added to 40 μL of the plasma sample for precipitation, and then the mixture was centrifuged for 5-20 minutes at 3500×g.
2) 90 μL of acetonitrile containing the internal standard (100 ng/mL) was added to 30 μL of the plasma and brain homogenate samples for precipitation, and then the mixture was centrifuged for 8 minutes at 13000 rpm.
3) 70 μL of the treated supernatant was taken and added to 70 μL of water, and mixed by vortex for 10 minutes. 20 μL of the mixture was taken to analyze the concentration of the test compound by LC/MS/MS. LC/MS/MS analysis instrument: AB Sciex API 4000 Qtrap.
• Liquid chromatography condition: Shimadzu LC-20AD pump. • Chromatographic column: Agilent ZORBAX™ XDB-C18 (50×2.1 mm, 3.5 μm) (note: Aglient ZORBAX™ is a kind of column used in the reverse HPLC); • Mobile phase: Eluent A was 0.10% formic acid in water, and Eluent B was acetonitrile. • Flow rate: 0.4 mL/min • Elution time: 0-4.0 minutes, the eluent is as follows:
The main parameters of pharmacokinetics were calculated by WinNonlin 6.1.

Structures are written as SMILES. Where two headings read alike, the source gives them in different places.

Turning to `CC[C@@H]1C[C@H](C(=O)Cn2cc(C#N)cn2)[C@@]2(C)CC[C@H]3[C@@H](CC[C@@H]4C[C@](C)(O)CC[C@@H]43)[C@H]12` [Example 81, 1-(2-((3R,5R,8R,9R,10S,13S,14S,15R,17S)-15-Ethyl-3-hydroxy-3,13-dimethylhexadecahydro-1H-cyclopenta[a]phenanthren-17-yl)-2-oxoethyl)-1H-pyrazole-4-carbonitrile], under “brain tissue”, the AUC(0-t) came to 1440 ng·h/mL, the AUC(0-inf) came to 2230 ng·h/mL, the half-life was 5.59 h and the MRT was 7.97 h. Moreover, under “brain tissue”, the Tmax is 1 h and the Cmax is 296 ng/mL. Moreover, for the setting “plasma”, the AUC(0-t) was found to be 4640 ng·h/mL, the AUC(0-inf) amounted to 5920 ng·h/mL, the half-life was 2.64 h and the mean residence time MRT worked out at 4.96 h. Also, where the note is “plasma”, the Tmax turned out to be 1 h and the Cmax was 1150 ng/mL.

Take `C[C@@]1(O)CC[C@H]2[C@H](CC[C@@H]3[C@@H]2CC[C@@]2(C)[C@H]3[C@@H]3C[C@@H]3[C@@H]2C(=O)Cn2cc([N+](=O)[O-])cn2)C1` [Example 103, 1-((2R,4aS,4bR,6aS,7S,7aS,8aR,8bR,8cR,10aR)-2-Hydroxy-2,6a-dimethyloctadecahydrocyclopropa[4,5]cyclopenta[1,2-a]phenanthren-7-yl)-2-(4-nitro-1H-pyrazol-1-yl)ethan-1-one]: under “brain tissue”, the AUC(0-t) was determined as 1680 ng·h/mL, the AUC(0-inf) is 1710 ng·h/mL, the half-life was 1.12 h and the MRT is 2.07 h. Also, under “brain tissue”, the Tmax amounted to 1 h and the Cmax was 626 ng/mL. Moreover, where the note is “plasma”, the AUC(0-t) was 1030 ng·h/mL, the AUC(0-inf) was determined as 1060 ng·h/mL, the half-life was 1.19 h and the MRT stood at 2.12 h. Also, under “plasma”, the Tmax was 1 h and the Cmax worked out at 386 ng/mL.

By MRT is commonly meant a mean duration of stay, worked out from the concentration-time curve. A word on the Tmax: it is the time from dosing to the highest level.
